Results reported in ChEMBL document CHEMBL5528078, “Structural Basis for Molecular Recognition of Cannabinoids by Inhibitory Cys-Loop Channels” (J Med Chem, 2024).

How the values were obtained:
[1] = biological target: T1, Glycine receptor subunit alpha-1 (Homo sapiens, UniProt P23415); assay: Inhibition of human […] glycine receptor alpha 1 expressed in HEK293 cells; type: cell-based
T1 sequence (P23415 whole entry): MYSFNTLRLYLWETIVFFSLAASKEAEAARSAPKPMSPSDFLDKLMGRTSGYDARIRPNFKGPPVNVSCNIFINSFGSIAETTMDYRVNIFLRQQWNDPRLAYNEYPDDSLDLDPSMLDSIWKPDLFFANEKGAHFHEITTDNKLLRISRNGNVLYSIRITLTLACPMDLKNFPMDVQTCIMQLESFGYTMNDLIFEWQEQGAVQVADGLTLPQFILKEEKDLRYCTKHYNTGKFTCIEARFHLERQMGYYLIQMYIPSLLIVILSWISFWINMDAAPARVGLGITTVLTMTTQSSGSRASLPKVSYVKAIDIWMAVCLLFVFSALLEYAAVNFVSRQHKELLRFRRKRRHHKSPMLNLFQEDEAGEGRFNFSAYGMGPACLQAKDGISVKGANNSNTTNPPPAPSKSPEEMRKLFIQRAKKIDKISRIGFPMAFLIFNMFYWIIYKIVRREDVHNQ

[2] = Inhibition of […] glycine receptor (unknown origin) expressed in HEK293 cells; type: cell-based, Homo sapiens
[3] = biological target: T2, Glycine receptor subunit alpha-2 (Homo sapiens, UniProt P23416); assay: Inhibition of human […] glycine receptor alpha 2 expressed in HEK293 cells; type: cell-based
T2 sequence (P23416 whole entry): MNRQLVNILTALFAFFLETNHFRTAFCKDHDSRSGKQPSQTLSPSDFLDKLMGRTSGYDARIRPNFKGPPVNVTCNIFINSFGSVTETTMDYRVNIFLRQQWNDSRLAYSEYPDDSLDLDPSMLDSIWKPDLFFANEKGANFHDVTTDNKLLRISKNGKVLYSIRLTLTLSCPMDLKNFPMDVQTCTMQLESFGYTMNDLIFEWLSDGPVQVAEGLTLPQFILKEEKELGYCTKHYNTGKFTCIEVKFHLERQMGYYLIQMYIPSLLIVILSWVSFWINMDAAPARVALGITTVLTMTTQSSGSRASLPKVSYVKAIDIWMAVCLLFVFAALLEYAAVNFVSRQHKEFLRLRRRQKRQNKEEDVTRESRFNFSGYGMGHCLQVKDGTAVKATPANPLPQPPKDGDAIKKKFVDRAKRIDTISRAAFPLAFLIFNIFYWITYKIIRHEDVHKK

[4] = Cytotoxicity against HEK293 cells assessed as inhibition of cell growth incubated for 48 hrs by CCK8 assay; type: toxicity, cell-based; conditions: human

Question: Which IC50 [1] does the source give for `CCCCCCC(C)(C)c1cc(O)c2c(c1)OC(C)(C)[C@@H]1CC=C(CO)C[C@@H]21` here?
Answer: 2700 nM

Question: With `CCCCCc1cc(O)c2c(c1)OC(C)(C)[C@@H]1CCC(C)=C[C@@H]21` [DRONABINOL] as the compound, how does the IC50 [2] read?
Answer: 2700 nM

Question: With `C=C(C)[C@@H]1CCC(C)=C[C@H]1c1c(O)cc(CCCCC)cc1O` [CANNABIDIOL] as the compound, how does the IC50 [3] read?
Answer: 2700 nM

Question: What about the EC50 at 48 h [4] of the same compound?
Answer: 12000 nM
